Assay results from BigSolDB 2.1.

CC1=NN(c2ccc(C)cc2)C(=O)C1
solubility (mole fraction) (in 1,4-dioxane, 283.15 K): 0.0337 | solubility (mole fraction) (in 1,4-dioxane, 285.65 K): 0.0367 | solubility (mole fraction) (in 1,4-dioxane, 288.15 K): 0.0399 | solubility (mole fraction) (in 1,4-dioxane, 290.65 K): 0.0432 | solubility (mole fraction) (in 1,4-dioxane, 293.15 K): 0.047 | solubility (mole fraction) (in 1,4-dioxane, 295.65 K): 0.0507 | solubility (mole fraction) (in 1,4-dioxane, 298.15 K): 0.0549 | solubility (mole fraction) (in 1,4-dioxane, 300.65 K): 0.0591 | solubility (mole fraction) (in 1,4-dioxane, 303.15 K): 0.0638 | solubility (mole fraction) (in 1,4-dioxane, 305.65 K): 0.0683 | solubility (mole fraction) (in 1,4-dioxane, 308.15 K): 0.0737 | solubility (mole fraction) (in 1,4-dioxane, 310.65 K): 0.0791 | solubility (mole fraction) (in 1,4-dioxane, 313.15 K): 0.0849 | solubility (mole fraction) (in acetonitrile, 278.15 K): 0.00534 | solubility (mole fraction) (in acetonitrile, 280.65 K): 0.00596 | solubility (mole fraction) (in acetonitrile, 283.15 K): 0.00668 | solubility (mole fraction) (in acetonitrile, 285.65 K): 0.00746 | solubility (mole fraction) (in acetonitrile, 288.15 K): 0.0083 | solubility (mole fraction) (in acetonitrile, 290.65 K): 0.00927 | solubility (mole fraction) (in acetonitrile, 293.15 K): 0.0104 | solubility (mole fraction) (in acetonitrile, 295.65 K): 0.0115 | solubility (mole fraction) (in acetonitrile, 298.15 K): 0.0128 | solubility (mole fraction) (in acetonitrile, 300.65 K): 0.0142 | solubility (mole fraction) (in acetonitrile, 303.15 K): 0.0157 | solubility (mole fraction) (in acetonitrile, 305.65 K): 0.0173 | solubility (mole fraction) (in acetonitrile, 308.15 K): 0.0192 | solubility (mole fraction) (in acetonitrile, 310.65 K): 0.0213 | solubility (mole fraction) (in acetonitrile, 313.15 K): 0.0235 | solubility (mole fraction) (in cyclohexane, 283.15 K): 0.000488 | solubility (mole fraction) (in cyclohexane, 285.65 K): 0.000558 | solubility (mole fraction) (in cyclohexane, 288.15 K): 0.000626 | solubility (mole fraction) (in cyclohexane, 290.65 K): 0.000714 | solubility (mole fraction) (in cyclohexane, 293.15 K): 0.000802 | solubility (mole fraction) (in cyclohexane, 295.65 K): 0.000902 | solubility (mole fraction) (in cyclohexane, 298.15 K): 0.00102 | solubility (mole fraction) (in cyclohexane, 300.65 K): 0.00114 | solubility (mole fraction) (in cyclohexane, 303.15 K): 0.00128 | solubility (mole fraction) (in cyclohexane, 305.65 K): 0.00142 | solubility (mole fraction) (in cyclohexane, 308.15 K): 0.00161 | solubility (mole fraction) (in cyclohexane, 310.65 K): 0.00179 | solubility (mole fraction) (in cyclohexane, 313.15 K): 0.002 | solubility (mole fraction) (in ethanol, 278.15 K): 0.0146 | solubility (mole fraction) (in ethanol, 280.65 K): 0.0161 | solubility (mole fraction) (in ethanol, 283.15 K): 0.0176 | solubility (mole fraction) (in ethanol, 285.65 K): 0.0191 | solubility (mole fraction) (in ethanol, 288.15 K): 0.0209 | solubility (mole fraction) (in ethanol, 290.65 K): 0.0229 | solubility (mole fraction) (in ethanol, 293.15 K): 0.0248 | solubility (mole fraction) (in ethanol, 295.65 K): 0.027 | solubility (mole fraction) (in ethanol, 298.15 K): 0.0294 | solubility (mole fraction) (in ethanol, 300.65 K): 0.0319 | solubility (mole fraction) (in ethanol, 303.15 K): 0.0345 | solubility (mole fraction) (in ethanol, 305.65 K): 0.0372 | solubility (mole fraction) (in ethanol, 308.15 K): 0.0403 | solubility (mole fraction) (in ethanol, 310.65 K): 0.0436 | solubility (mole fraction) (in ethanol, 313.15 K): 0.0471 | solubility (mole fraction) (in ethyl acetate, 278.15 K): 0.0171 | solubility (mole fraction) (in ethyl acetate, 280.65 K): 0.0188 | solubility (mole fraction) (in ethyl acetate, 283.15 K): 0.0207 | solubility (mole fraction) (in ethyl acetate, 285.65 K): 0.0226 | solubility (mole fraction) (in ethyl acetate, 288.15 K): 0.0247 | solubility (mole fraction) (in ethyl acetate, 290.65 K): 0.0271 | solubility (mole fraction) (in ethyl acetate, 293.15 K): 0.0294 | solubility (mole fraction) (in ethyl acetate, 295.65 K): 0.032 | solubility (mole fraction) (in ethyl acetate, 298.15 K): 0.0349 | solubility (mole fraction) (in ethyl acetate, 300.65 K): 0.0378 | solubility (mole fraction) (in ethyl acetate, 303.15 K): 0.041 | solubility (mole fraction) (in ethyl acetate, 305.65 K): 0.0444 | solubility (mole fraction) (in ethyl acetate, 308.15 K): 0.0481 | solubility (mole fraction) (in ethyl acetate, 310.65 K): 0.052 | solubility (mole fraction) (in ethyl acetate, 313.15 K): 0.0562 | solubility (mole fraction) (in ethylbenzene, 278.15 K): 0.0109 | solubility (mole fraction) (in ethylbenzene, 280.65 K): 0.012 | solubility (mole fraction) (in ethylbenzene, 283.15 K): 0.0132 | solubility (mole fraction) (in ethylbenzene, 285.65 K): 0.0146 | solubility (mole fraction) (in ethylbenzene, 288.15 K): 0.016 | solubility (mole fraction) (in ethylbenzene, 290.65 K): 0.0175 | solubility (mole fraction) (in ethylbenzene, 293.15 K): 0.0193 | solubility (mole fraction) (in ethylbenzene, 295.65 K): 0.0211 | solubility (mole fraction) (in ethylbenzene, 298.15 K): 0.0231 | solubility (mole fraction) (in ethylbenzene, 300.65 K): 0.0253 | solubility (mole fraction) (in ethylbenzene, 303.15 K): 0.0276 | solubility (mole fraction) (in ethylbenzene, 305.65 K): 0.0301 | solubility (mole fraction) (in ethylbenzene, 308.15 K): 0.0327 | solubility (mole fraction) (in ethylbenzene, 310.65 K): 0.0356 | solubility (mole fraction) (in ethylbenzene, 313.15 K): 0.0387 | solubility (mole fraction) (in isopentanol, 278.15 K): 0.0303 | solubility (mole fraction) (in isopentanol, 280.65 K): 0.0335 | solubility (mole fraction) (in isopentanol, 283.15 K): 0.037 | solubility (mole fraction) (in isopentanol, 285.65 K): 0.041 | solubility (mole fraction) (in isopentanol, 288.15 K): 0.0449 | solubility (mole fraction) (in isopentanol, 290.65 K): 0.0492 | solubility (mole fraction) (in isopentanol, 293.15 K): 0.0542 | solubility (mole fraction) (in isopentanol, 295.65 K): 0.0593 | solubility (mole fraction) (in isopentanol, 298.15 K): 0.0646 | solubility (mole fraction) (in isopentanol, 300.65 K): 0.0705 | solubility (mole fraction) (in isopentanol, 303.15 K): 0.0769 | solubility (mole fraction) (in isopentanol, 305.65 K): 0.0835 | solubility (mole fraction) (in isopentanol, 308.15 K): 0.0906 | solubility (mole fraction) (in isopentanol, 310.65 K): 0.0982 | solubility (mole fraction) (in isopentanol, 313.15 K): 0.106 | solubility (mole fraction) (in isopropanol, 278.15 K): 0.0116 | solubility (mole fraction) (in isopropanol, 280.65 K): 0.0127 | solubility (mole fraction) (in isopropanol, 283.15 K): 0.014 | solubility (mole fraction) (in isopropanol, 285.65 K): 0.0153 | solubility (mole fraction) (in isopropanol, 288.15 K): 0.0168 | solubility (mole fraction) (in isopropanol, 290.65 K): 0.0184 | solubility (mole fraction) (in isopropanol, 293.15 K): 0.02 | solubility (mole fraction) (in isopropanol, 295.65 K): 0.0218 | solubility (mole fraction) (in isopropanol, 298.15 K): 0.0238 | solubility (mole fraction) (in isopropanol, 300.65 K): 0.0259 | solubility (mole fraction) (in isopropanol, 303.15 K): 0.0281 | solubility (mole fraction) (in isopropanol, 305.65 K): 0.0305 | solubility (mole fraction) (in isopropanol, 308.15 K): 0.033 | solubility (mole fraction) (in isopropanol, 310.65 K): 0.0358 | solubility (mole fraction) (in isopropanol, 313.15 K): 0.0387 | solubility (mole fraction) (in methanol, 278.15 K): 0.0152 | solubility (mole fraction) (in methanol, 280.65 K): 0.0168 | solubility (mole fraction) (in methanol, 283.15 K): 0.0183 | solubility (mole fraction) (in methanol, 285.65 K): 0.02 | solubility (mole fraction) (in methanol, 288.15 K): 0.0221 | solubility (mole fraction) (in methanol, 290.65 K): 0.024 | solubility (mole fraction) (in methanol, 293.15 K): 0.0262 | solubility (mole fraction) (in methanol, 295.65 K): 0.0287 | solubility (mole fraction) (in methanol, 298.15 K): 0.0312 | solubility (mole fraction) (in methanol, 300.65 K): 0.034 | solubility (mole fraction) (in methanol, 303.15 K): 0.0367 | solubility (mole fraction) (in methanol, 305.65 K): 0.0398 | solubility (mole fraction) (in methanol, 308.15 K): 0.0432 | solubility (mole fraction) (in methanol, 310.65 K): 0.0468 | solubility (mole fraction) (in methanol, 313.15 K): 0.0506 | solubility (mole fraction) (in n-butanol, 278.15 K): 0.0188 | solubility (mole fraction) (in n-butanol, 280.65 K): 0.0206 | solubility (mole fraction) (in n-butanol, 283.15 K): 0.0226 | solubility (mole fraction) (in n-butanol, 285.65 K): 0.0247 | solubility (mole fraction) (in n-butanol, 288.15 K): 0.0271 | solubility (mole fraction) (in n-butanol, 290.65 K): 0.0294 | solubility (mole fraction) (in n-butanol, 293.15 K): 0.032 | solubility (mole fraction) (in n-butanol, 295.65 K): 0.0349 | solubility (mole fraction) (in n-butanol, 298.15 K): 0.0377 | solubility (mole fraction) (in n-butanol, 300.65 K): 0.041 | solubility (mole fraction) (in n-butanol, 303.15 K): 0.0444 | solubility (mole fraction) (in n-butanol, 308.15 K): 0.0518 | solubility (mole fraction) (in n-butanol, 310.65 K): 0.056 | solubility (mole fraction) (in n-butanol, 313.15 K): 0.0603 | solubility (mole fraction) (in n-propanol, 278.15 K): 0.0177 | solubility (mole fraction) (in n-propanol, 280.65 K): 0.0194 | solubility (mole fraction) (in n-propanol, 283.15 K): 0.0213 | solubility (mole fraction) (in n-propanol, 285.65 K): 0.0232 | solubility (mole fraction) (in n-propanol, 288.15 K): 0.0254 | solubility (mole fraction) (in n-propanol, 290.65 K): 0.0276 | solubility (mole fraction) (in n-propanol, 293.15 K): 0.0301 | solubility (mole fraction) (in n-propanol, 295.65 K): 0.0326 | solubility (mole fraction) (in n-propanol, 298.15 K): 0.0353 | solubility (mole fraction) (in n-propanol, 300.65 K): 0.0384 | solubility (mole fraction) (in n-propanol, 303.15 K): 0.0414 | solubility (mole fraction) (in n-propanol, 305.65 K): 0.0448 | solubility (mole fraction) (in n-propanol, 308.15 K): 0.0483 | solubility (mole fraction) (in n-propanol, 310.65 K): 0.0522 | solubility (mole fraction) (in n-propanol, 313.15 K): 0.0561 | solubility (mole fraction) (in toluene, 278.15 K): 0.00985 | solubility (mole fraction) (in toluene, 280.65 K): 0.0109 | solubility (mole fraction) (in toluene, 283.15 K): 0.012 | solubility (mole fraction) (in toluene, 285.65 K): 0.0133 | solubility (mole fraction) (in toluene, 288.15 K): 0.0147 | solubility (mole fraction) (in toluene, 290.65 K): 0.0161 | solubility (mole fraction) (in toluene, 293.15 K): 0.0176 | solubility (mole fraction) (in toluene, 295.65 K): 0.0193 | solubility (mole fraction) (in toluene, 298.15 K): 0.021 | solubility (mole fraction) (in toluene, 300.65 K): 0.023 | solubility (mole fraction) (in toluene, 303.15 K): 0.025 | solubility (mole fraction) (in toluene, 305.65 K): 0.0273 | solubility (mole fraction) (in toluene, 308.15 K): 0.0298 | solubility (mole fraction) (in toluene, 310.65 K): 0.0323 | solubility (mole fraction) (in toluene, 313.15 K): 0.0351
